Data taken from patent US9517988B2 (Sichuan Haisco Pharmaceutical Co., Ltd., priority 2013, dated 2016).

Columns and labels:
[1] = Righting reflex experiment on mice; settings: both, ICR, mouse, in vivo; for MTD: intravenous; for LD50: iv
Experimental: (§1) LD5 (5% lethal dose): dose required to cause 5% of mice to die in a test.
(§2) If a normal animal was able to immediately turn its body to normal upright position after being pushed over or made lying on its back, such a reflex was determined as the righting reflex. Otherwise, loss of the righting reflex and the time of loss were recorded, and a reflex recovery time was recorded when the animal restored the righting reflex. The period from finishing of drug administration until loss of the righting reflex was recorded as the anesthesia induction time, and the period from loss of the righting reflex until recovery of the righting reflex was recorded as the anesthesia maintenance time.
(§3) TI (therapeutic index, i.e. LD50/ED50), SI (safety index, i.e. LD5/ED95).
(§4) MTD (maximum tolerated dose): the maximum dose able to cause 100% to loss the righting index without death.
(§5) Indicators such as median effective dose (ED50), median lethal dose (LD50), therapeutic index (TI, i.e. LD50/ED50), safety index (SI, i.e. LD5/ED95), anesthesia induction time, anesthesia maintenance time, and maximum tolerated dose (MTD) were used to evaluate the effect and safety of anesthesia. […] After adapting to the laboratory environment, laboratory animals were fasted for 12 hours. On the next day, administration was carried out at 10 mg/kg body weight. Upon intravenous injection, the time of loss of the righting reflex was recorded. The period from finishing of drug administration until loss of the righting reflex was recorded as the anesthesia induction time, and the period from loss of the righting reflex until recovery of the righting reflex was recorded as the anesthesia maintenance time. The anesthesia induction time and the anesthesia maintenance time were used to indicate how strong an anesthetic effect was. Meanwhile, the dose required to cause a 7-min anesthesia (HD7) was measured and used to evaluate relative efficacy.

ICR mice [2] = experiment: Righting reflex experiment on mice; settings: for ED50: Mus musculus, iv; for Anesthesia induction time / Anesthesia maintenance time / HD7 / MTD: mice; for Anesthesia induction time / Anesthesia maintenance time: intravenous injection; for Anesthesia induction time: end of administration until loss of righting reflex; for Anesthesia maintenance time: loss until recovery of righting reflex; for SI: safety index, LD5/ED95, mice; for TI: therapeutic index, LD50/ED50, mice; for HD7: dose required to cause a 7-min anesthesia; for MTD: maximum dose causing 100% loss of righting reflex without death
Experimental: as §1, §2, §3, §4, §5

[3] = Pharmacokinetic experiment on rats; type: in vivo, SD rats; settings: male, Sprague-Dawley, rat, plasma; Intravenous Injection into Rats (1 mg/kg)
Experimental: 3 male SD rats, each weighing 180 to 240 g, were fasted overnight with water access. A 1 mL/kg solution of the compound was formulated with 10% DMA, 20% solutol HS-15 (30%, w/v) and 70% physiological saline. Blood was sampled before administration and 2 min, 4 min, 8 min, 12 min, 15 min, 30 min, 1 h, 1.5 h and 2 h after administration. Blood samples were centrifuged at 5500 rpm for 10 min, and plasma was collected and stored at −40° C. 10 μl rat plasma from each time point was added to a 200 μl acetonitrile solution containing an internal standard and mixed, followed by 1-min vortexing and 18-min centrifugation at 3700 rpm. Then 70 μl supernatant was mixed with 70 μl water, and 10 μl of the mixture was analyzed by LC-MS/MS. Major pharmacokinetic parameters were subjected to a non-compartment analysis with the software WinNonlin 6.3.

[4] = Pharmacokinetic analysis with prodrugs in rats; type: in vivo, SD rats; settings: male, Sprague-Dawley, rat, plasma; Intravenous Injection into Rats (10 mg/kg); analyte: prodrug
Experimental: 3 male SD rats, each weighing 180 to 240 g, were fasted overnight with water access. After a single intravenous administration of a prodrug at 10 mg/kg to rats, the plasma concentrations of the prodrug and the active form were each measured by LC-MS/MS, and the pharmacokinetic parameters were analyzed.

[5] = Righting reflex experiment on mice with prodrugs; type: in vivo; settings: both sexes, ICR, mouse, in vivo, mice; for MTD: intravenous, prodrugs; for LD50: intravenous injection, prodrugs in physiological saline
Experimental: (§6) After adapting to the laboratory environment, the SPF-grade ICR mice were fasted for 12 hours.

ICR mice [6] = experiment: Righting reflex experiment on mice with prodrugs; type: in vivo; settings: for ED50: Mus musculus, prodrugs formulated with physiological saline, read-out: ED50; for ED50 / Anesthesia induction time / Anesthesia maintenance time: intravenous injection; for SI: safety index, LD5/ED95, mice; for TI: therapeutic index, LD50/ED50, mice
Experimental: as §6

SD rats = experiment: Efficacy experiment on rats with prodrugs; type: in vivo; settings: for ED50: Rattus norvegicus, non-linear fitting; for ED50 / Anesthesia induction time / Anesthesia maintenance time: SD rats, tail vein
Experimental: (§7) This experiment selected SD rats, each weighing 180 to 200 g. The rats were randomized, with 10 animals per group, half male and half female. […] The time of administration, time of loss of the righting reflex, time of recovery of the righting reflex, and time of walking were recorded. Adverse effects shown by the rats after administration were also recorded.
(§8) Time of loss of the righting reflex: the righting reflex is lost; a rat made lying on its back can maintain the lying for a period of 60 s;
(§9) Time of recovery of the righting reflex: the righting reflex ability is restored; a rat made lying on its back rights in less than 2 s;
(§10) Time of walking: spontaneous forwarding moving occurs, and muscle tension of the limbs recovers.
(§11) Using GraphPad Prism 5, ED50 and LD50 values were calculated from a non-linear fitting of number of anesthetic or dead animals resulting from various doses.

[7] = Efficacy experiment on rats with prodrugs; type: in vivo; settings: both sexes, Sprague-Dawley, rat, in vivo, intravenous, SD rats; for LD50: tail vein, non-linear fitting
Experimental: as §7, §8, §9, §10, §11

Row | SMILES | MTD [1] [mg/kg] | LD50 [1] [mg/kg] | ED50 (ICR mice [2]) [mg/kg] | Anesthesia induction time (ICR mice [2]) [s] | Anesthesia maintenance time (ICR mice [2]) [s] | SI (ICR mice [2]) | TI (ICR mice [2]) | AUC(0-t) [3] [µg·h/mL] | clearance [3] [L/h/kg] | half-life [3] [min] | HD7 (ICR mice [2]) [mg/kg] | other results
1 | COc1cccc(C(C)C2CC2)c1O (stereo not shown) [Compound 8, 2-(1-cyclopropylethyl)-6-methoxy-phenol] | 40 | 67 | 7.3 | <15.0 | 394.8 | 7.0 | 9.1 | 0.132 | 7.14 | 48 |  | 
2 | CC(c1cccc(C(C)C2CC2)c1O)C1CC1 (stereo not shown) [Compound 13, 2,6-bis(1-cyclopropylethyl)phenol] |  | 20 | 3.6 | <15.0 | 554.4 | 3.0 | 5.5 | 0.187 | 5.25 | 12 | 7.0 | MTD (ICR mice [2]): 10.0 mg/kg
3 | C[C@@H](c1cccc([C@H](C)C2CC2)c1O)C1CC1 [Compound 18, 2,6-bis[(1R)-1-cyclopropylethyl]phenol] | 20 | 43.6 | 5.8 | <15.0 | 1031.6 | 3.5 | 7.5 |  |  |  | 2.5 | 
4 | C[C@H](c1cccc([C@H](C)C2CC2)c1O)C1CC1 [Compound 19, 2-[(1S)-1-cyclopropylethyl]-6-[(1R)-1-cyclopropylethyl]phenol] | 5 | 6.3 | 1.5 | <15.0 | 754.4 | 3.8 | 4.1 |  |  |  |  | 
5 | C[C@H](c1cccc([C@@H](C)C2CC2)c1O)C1CC1 [Compound 20, 2,6-bis[(1S)-1-cyclopropylethyl]phenol] |  | 150 | 15.7 | <15.0 | 1207.7 | 4.4 | 9.6 |  |  |  |  | MTD (ICR mice [2]): 90.0 mg/kg
6 | CC[C@H](C)c1cccc([C@H](C)C2CC2)c1O [Compound 25, 2-[(1R)-1-cyclopropylethyl]-6-[(1S)-1-methylpropyl]phenol] | 10 | 14.3 | 2 | <15.0 | 1048.0 | 4.6 | 7.1 | 0.0781 | 12.5 | 24 | 4.0 | 
7 | CC[C@@H](C)c1cccc([C@H](C)C2CC2)c1O [Compound 26, 2-[(1R)-1-cyclopropylethyl]-6-[(1R)-1-methylpropyl]phenol] | 4 | 8.3 | 1.3 | <15.0 | 690.0 | 2.4 | 6.4 | 0.124 | 8.04 | 30 | 2.5 | 
8 | CC[C@H](C)c1cccc([C@@H](C)C2CC2)c1O [Compound 28, 2-[(1S)-1-cyclopropylethyl]-6-[(1S)-1-methylpropyl]phenol] | 15 | 36.8 | 5.3 | <15.0 | 885.9 | 3.0 | 6.9 | 0.143 | 6.9 | 18 | 8.0 | 
9 | CC[C@@H](C)c1cccc([C@@H](C)C2CC2)c1O [Compound 29, 2-[(1S)-1-cyclopropylethyl]-6-[(1R)-1-methylpropyl]phenol] | 40 | 65.4 | 10.1 | <15.0 | 1149.5 | 3.7 | 6.4 | 0.114 | 8.7 | 24 |  | 
10 | CC(C)c1cccc([C@H](C)C2CC2)c1OP(=O)(O)O [Compound 46, [[2-[(1R)-1-cyclopropylethyl]-6-isopropyl-phenoxy]-sodiooxy-phosphoryl]oxysodium] |  |  |  |  |  |  |  |  |  |  |  | AUC(0-t) [4]: 22.4 µg·h/mL; clearance [4]: 0.366 L/h/kg; half-life [4]: 54 min; MTD [5]: 200 mg/kg; LD50 [5]: 225 mg/kg; ED50 (ICR mice [6]; mice): 72.6 mg/kg; Anesthesia induction time (ICR mice [6]; mice, prodrugs): 167.0 s; Anesthesia maintenance time (ICR mice [6]; mice, prodrugs): 2204.6 s; SI (ICR mice [6]; prodrugs): 2.4; TI (ICR mice [6]; prodrugs): 3.1
11 | CC(C)c1cccc([C@H](C)C2CC2)c1OCOP(=O)([O-])[O-].[Na+].[Na+] [Compound 52] |  |  |  |  |  |  |  |  |  |  |  | ED50 (SD rats): 12.5 to 15 mg/kg; Anesthesia induction time (SD rats): 92.8 s; Anesthesia maintenance time (SD rats): 1946.3 s; MTD [7]: 30 mg/kg; LD50 [7]: 61.4 mg/kg; AUC(0-t) [4]: 15.9 µg·h/mL; clearance [4]: 0.63 L/h/kg; half-life [4]: 24 min; LD50 [5]: 86.2 mg/kg; ED50 (ICR mice [6]; mice): 20.4 mg/kg; Anesthesia induction time (ICR mice [6]; mice, prodrugs): 73.0 s; Anesthesia maintenance time (ICR mice [6]; mice, prodrugs): 1830.2 s; MTD (ICR mice [6]; mice, prodrugs): 60.0 mg/kg; SI (ICR mice [6]; prodrugs): 3.3; TI (ICR mice [6]; prodrugs): 4.2
12 | CC(C)c1cccc([C@H](C)C2CC2)c1OCOC(=O)[C@H](Cc1ccccc1)NC(=O)OC(C)(C)C [Compound 61, [2-[(1R)-1-cyclopropylethyl]-6-isopropyl-phenoxy]methyl(2S)-2-(tertbutoxycarbonylamino)-3-phenyl-propanoate] |  |  |  |  |  |  |  |  |  |  |  | ED50 (SD rats): 6.5 mg/kg; Anesthesia induction time (SD rats): 0.0 s; Anesthesia maintenance time (SD rats): 1474.9 s; ED50 and efficacy compared with propofol (SD rats; rats, prodrugs): smaller ED50 and higher efficacy than propofol; SI (SD rats; safety index, LD5/ED95, rats): 6.3; TI (SD rats; therapeutic index, LD50/ED50, rats): 9.4; MTD [7]: 40 mg/kg; LD50 [7]: 60.8 mg/kg; MTD [5]: 40 mg/kg; LD50 [5]: 87.4 mg/kg; ED50 (ICR mice [6]; mice): 6.1 mg/kg; Anesthesia induction time (ICR mice [6]; mice, prodrugs): 17.5 s; Anesthesia maintenance time (ICR mice [6]; mice, prodrugs): 1109.2 s; ED50 and efficacy compared with propofol (ICR mice [6]; mice, prodrugs): smaller ED50 value and higher efficacy than propofol; SI (ICR mice [6]; prodrugs): 3.7; TI (ICR mice [6]; prodrugs): 14.4
